Assay results taken from publication PMC7958298 (Journal of the American Chemical Society, 2020).

Columns and labels:
pre-miRNA-21 stem = experiment: BLI binding to pre-miRNA-21 stem missing the hairpin loop; conditions: relative to pre-miRNA-21 hairpin, SI Figure 1
[1] = test system: hairpin derived from HIV RNA; experiment: BLI binding to unrelated hairpin derived from HIV RNA; conditions: SI Figure 1
pre-miRNA-21 = experiment: Circular dichroism melting of pre-miRNA-21; assay type: physicochemical; conditions: pre-miRNA-21 alone vs with 39, SI Figure 3

Lys-DabG-hAlaA-Arg-Asp-DabA-Leu-hAlaG-Ala-Lys [Compound 39]
reduction of affinity towards the pre-miRNA-21 stem, missing the hairpin loop (pre-miRNA-21 stem): over 50 fold | binding to unrelated hairpin derived from HIV RNA [1]: high affinity | shift in melting temperature of pre-miRNA-21 in the presence of peptide (pre-miRNA-21): no significant shift in melting temperature
